Values after ≈ are worked out from the molar mass of the structure shown. Read-outs that look alike come from different tables or passages of the source.

This is an account of results in patent US4971963A, “Cephem compounds, and use” (Takeda Chemical Industries, Ltd., priority 1988, dated 1990).

What all share (assay): Minimal inhibitory concentration, agar dilution method
What all share (assay type): cell-based

In one assay the test system is C. freundii IFO12681. As to conditions: Citrobacter freundii, Trypticase soy agar, about 10^8 CFU/ml, 37° C., 18 hours. As to the method: (§1) The Minimal Inhibitory Concentrations of the tested compounds were determined according to the agar dilution method. Namely, 1.0 ml each of aqueous solution of the test compounds diluted by serial dilutions was poured into test petri dishes, subsequently 9.0 ml each of Trypticase soy agar was poured into the dishes and mixed.
(§2) On each of the mixed agar plates, one loopful of bacterial suspension (about 10^8 CFU/ml) of test microorganism was streaked.
(§3) After the incubation at 37° C. for 18 hours, the lowest concentration of the tested compounds in the medium which caused apparently complete inhibition of growth of the test microorganism was taken to be minimal inhibitory concentration.

Another assay has as its system E. cloacae IFO12937. Particulars: Enterobacter cloacae, Trypticase soy agar, about 10^8 CFU/ml, 37° C., 18 hours. As to the method: as §1, §2, §3
The next assay relates to E. coli NIHJ JC-2. As to conditions: Escherichia coli, NIHJJC2, Trypticase soy agar, about 10^8 CFU/ml, 37° C., 18 hours. The protocol:
as §1, §2, §3

In the next assay the test system is E. coli O-111. As to conditions: Escherichia coli, O111, Trypticase soy agar, about 10^8 CFU/ml, 37° C., 18 hours. The protocol:
as §1, §2, §3

The next assay deals with E. coli T 7. Particulars: Escherichia coli, T7, Trypticase soy agar, about 10^8 CFU/ml, 37° C., 18 hours. As to the method: as §1, §2, §3
The next assay has as its system K. pneumoniae DT. Particulars: Klebsiella pneumoniae, Trypticase soy agar, about 10^8 CFU/ml, 37° C., 18 hours. The protocol: as §1, §2, §3
In another assay the test system is M. morganii IFO3168. As to conditions: Morganella morganii, Trypticase soy agar, about 10^8 CFU/ml, 37° C., 18 hours. As to the method:
as §1, §2, §3

For the next assay, the system named is P. aeruginosa IFO3455. As to conditions: Pseudomonas aeruginosa, Trypticase soy agar, about 10^8 CFU/ml, 37° C., 18 hours. As to the method: as §1, §2, §3
The test system of a further assay is P. mirabilis IFO3849. Particulars: Proteus mirabilis, Trypticase soy agar, about 10^8 CFU/ml, 37° C., 18 hours. As to the method: as §1, §2, §3
In a further assay the test system is P. vulgaris IFO3988. Particulars: Proteus vulgaris, Trypticase soy agar, about 10^8 CFU/ml, 37° C., 18 hours. As to the method:
as §1, §2, §3

Another assay relates to S. aureus 1840. As to the method: as §1, §2, §3
In a further assay the test system is S. aureus 308 A-1. As to conditions: Staphylococcus aureus, 308A1, Trypticase soy agar, about 10^8 CFU/ml, 37° C., 18 hours. The protocol: as §1, §2, §3
In the next assay the test system is S. aureus FDA 209P. As to conditions: Staphylococcus aureus, FDA209P. The protocol:
as §1, §2, §3

Another assay deals with S. aureus J-108. As to conditions: Staphylococcus aureus, J108, Trypticase soy agar, about 10^8 CFU/ml, 37° C., 18 hours. As to the method: as §1, §2, §3
For another assay, the system named is S. aureus N-241. Particulars: Staphylococcus aureus, N241, Trypticase soy agar, about 10^8 CFU/ml, 37° C., 18 hours. The protocol: as §1, §2, §3
Another assay relates to S. marcescens IFO12648. Particulars: Serratia marcescens, Trypticase soy agar, about 10^8 CFU/ml, 37° C., 18 hours. As to the method:
as §1, §2, §3

[1] abbreviates: Staphylococcus aureus, S. aureus 1840, Trypticase soy agar, about 10^8 CFU/ml, 37° C., 18 hours, read-out: MIC.
Where [2] appears, read: S. aureus FDA 209P, Trypticase soy agar, about 10^8 CFU/ml, 37° C., 18 hours, read-out: MIC.

What is called MIC is the lowest concentration that inhibits growth of the organism. Consider `N#Cc1c(SCC(=N)N)nsc1SCC1=C(C(=O)O)N2C(=O)[C@@H](NC(=O)/C(=N\O)c3csc(N)n3)[C@H]2SC1` [Example 42, 3-[(3-Amidinomethylthio-4-cyanoisothiazol-5-yl)thiomethyl]-7β-[2-(2-aminothiazol-4-yl)-(Z)-2-hydroxyiminoacetamido]-3-cephem-4-carboxylic acid], for which the MIC against C. freundii IFO12681 was 0.78 µg/mL (≈ 1.28 µM); against E. cloacae IFO12937, 3.13 µg/mL (≈ 5.12 µM); in the assay with E. coli NIHJ JC-2, 0.78 µg/mL (≈ 1.28 µM); against E. coli O-111 it was at most 0.1 µg/mL; in the assay with E. coli T 7 it was 1.56 µg/mL (≈ 2.55 µM); with K. pneumoniae DT it was 0.78 µg/mL (≈ 1.28 µM). Also, the MIC in the assay on M. morganii IFO3168 is 0.78 µg/mL (≈ 1.28 µM); against P. aeruginosa IFO3455, 12.5 µg/mL (≈ 20.4 µM); against P. mirabilis IFO3849, 3.13 µg/mL (≈ 5.12 µM); in the assay on P. vulgaris IFO3988 it was 0.78 µg/mL (≈ 1.28 µM); in the assay on S. aureus 1840 (setting [1]), 0.2 µg/mL (≈ 0.327 µM); against S. aureus 308 A-1 it was at most 0.1 µg/mL. The MIC was at most 0.1 µg/mL in the assay on S. aureus FDA 209P (setting [2]), 0.78 µg/mL (≈ 1.28 µM) against S. aureus J-108, 0.78 µg/mL (≈ 1.28 µM) in the assay with S. aureus N-241 and 1.56 µg/mL (≈ 2.55 µM) in the assay with S. marcescens IFO12648.

Regarding `CO/N=C(\C(=O)N[C@@H]1C(=O)N2C(C(=O)O)=C(CSc3nnnn3CCCNC(=N)N)CS[C@H]12)c1csc(N)n1` [Example 8, 7β-[2-(2-Aminothiazol-4-yl)-(Z)-2-methoxyiminoacetamido]-3-[[1-(3-guanidinopropyl)-1H-tetrazol-5-yl]thiomethyl]-3-cephem-4-carboxylic acid], the MIC is at most 0.1 µg/mL in the assay with C. freundii IFO12681; 0.39 µg/mL (≈ 0.654 µM) with E. cloacae IFO12937; at most 0.1 µg/mL in the assay on E. coli NIHJ JC-2; at most 0.1 µg/mL in the assay on E. coli O-111; 0.39 µg/mL (≈ 0.654 µM) in the assay with E. coli T 7; at most 0.1 µg/mL against K. pneumoniae DT. The MIC is at most 0.1 µg/mL against M. morganii IFO3168; 6.25 µg/mL (≈ 10.5 µM) against P. aeruginosa IFO3455; 0.39 µg/mL (≈ 0.654 µM) with P. mirabilis IFO3849; at most 0.1 µg/mL against P. vulgaris IFO3988; 0.78 µg/mL (≈ 1.31 µM) in the assay on S. aureus 1840 (setting [1]); 0.78 µg/mL (≈ 1.31 µM) against S. aureus 308 A-1. Also, the MIC with S. aureus FDA 209P (18 h) was 0.78 µg/mL (≈ 1.31 µM); against S. aureus J-108, 6.25 µg/mL (≈ 10.5 µM); against S. aureus N-241, 12.5 µg/mL (≈ 20.9 µM); against S. marcescens IFO12648, at most 0.1 µg/mL.

Consider `CO/N=C(\C(=O)N[C@@H]1C(=O)N2C(C(=O)O)=C(CSc3snc(SCC(=N)N)c3C#N)CS[C@H]12)c1csc(N)n1` [Example 15, 3-[(3-Amidinomethylthio-4-cyanoisothiazol-5-yl)thiomethyl]-7β-[2-(2-aminothiazol-4-yl)-(Z)-2-methoxyiminoacetamido]-3-cephem-4-carboxylic acid], for which the MIC in the assay with C. freundii IFO12681 was 0.2 µg/mL (≈ 0.32 µM); against E. cloacae IFO12937, 0.78 µg/mL (≈ 1.25 µM); in the assay with E. coli NIHJ JC-2, 0.39 µg/mL (≈ 0.623 µM); with E. coli O-111, at most 0.1 µg/mL; against E. coli T 7 it was 0.39 µg/mL (≈ 0.623 µM); against K. pneumoniae DT it was 0.2 µg/mL (≈ 0.32 µM). Also, the MIC against M. morganii IFO3168 turned out to be 0.2 µg/mL (≈ 0.32 µM); with P. aeruginosa IFO3455, 6.25 µg/mL (≈ 9.99 µM); in the assay with P. mirabilis IFO3849, 0.78 µg/mL (≈ 1.25 µM); against P. vulgaris IFO3988 it was 0.2 µg/mL (≈ 0.32 µM); in the assay on S. aureus 1840 (Staphylococcus aureus, 1840, 18 h) it was 0.39 µg/mL (≈ 0.623 µM); with S. aureus 308 A-1 it was 0.2 µg/mL (≈ 0.32 µM). The MIC in the assay on S. aureus FDA 209P (setting [2]) came to 0.2 µg/mL (≈ 0.32 µM); against S. aureus J-108 it was 6.25 µg/mL (≈ 9.99 µM); in the assay on S. aureus N-241, 6.25 µg/mL (≈ 9.99 µM); against S. marcescens IFO12648, 0.39 µg/mL (≈ 0.623 µM).

As for `N=C(N)CSCCn1nnnc1SCC1=C(C(=O)O)N2C(=O)[C@@H](NC(=O)/C(=N\O)c3csc(N)n3)[C@H]2SC1` [Example 44], the MIC in the assay on C. freundii IFO12681 is 0.39 µg/mL (≈ 0.65 µM); against E. cloacae IFO12937, 3.13 µg/mL (≈ 5.22 µM); against E. coli NIHJ JC-2 it was 0.2 µg/mL (≈ 0.333 µM); in the assay with E. coli O-111, at most 0.1 µg/mL; against E. coli T 7, 0.78 µg/mL (≈ 1.3 µM); against K. pneumoniae DT, 0.2 µg/mL (≈ 0.333 µM). Further, the MIC against M. morganii IFO3168 was 0.39 µg/mL (≈ 0.65 µM); against P. aeruginosa IFO3455, 12.5 µg/mL (≈ 20.8 µM); in the assay on P. mirabilis IFO3849, 3.13 µg/mL (≈ 5.22 µM); in the assay on P. vulgaris IFO3988, 0.39 µg/mL (≈ 0.65 µM); in the assay on S. aureus 1840 (setting [1]), 0.2 µg/mL (≈ 0.333 µM); in the assay on S. aureus 308 A-1 it was at most 0.1 µg/mL. Besides, the MIC in the assay on S. aureus FDA 209P (setting [2]) was at most 0.1 µg/mL; with S. aureus J-108 it was 3.13 µg/mL (≈ 5.22 µM); against S. aureus N-241, 3.13 µg/mL (≈ 5.22 µM); against S. marcescens IFO12648, 0.39 µg/mL (≈ 0.65 µM).

With `N=C(N)CSc1nnc(SCC2=C(C(=O)O)N3C(=O)[C@@H](NC(=O)/C(=N\O)c4csc(N)n4)[C@H]3SC2)s1` [Example 39, 3-[(2-Amidinomethylthio-1,3,4-thiadiazol-5-yl)thiomethyl]-7β-[2-(2-aminothiazol-4-yl)-(Z)-2-hydroxyiminoacetamido]-3-cephem-4-carboxylic acid], the MIC against C. freundii IFO12681 is 0.39 µg/mL (≈ 0.664 µM); against E. cloacae IFO12937, 3.13 µg/mL (≈ 5.33 µM); in the assay with E. coli NIHJ JC-2, 0.39 µg/mL (≈ 0.664 µM); with E. coli O-111 it was at most 0.1 µg/mL; in the assay on E. coli T 7 it was 1.56 µg/mL (≈ 2.65 µM); in the assay with K. pneumoniae DT it was at most 0.1 µg/mL. Besides, the MIC against M. morganii IFO3168 amounted to 0.39 µg/mL (≈ 0.664 µM); with P. aeruginosa IFO3455, 12.5 µg/mL (≈ 21.3 µM); with P. mirabilis IFO3849, 1.56 µg/mL (≈ 2.65 µM); against P. vulgaris IFO3988, 0.78 µg/mL (≈ 1.33 µM); in the assay with S. aureus 1840 (setting [1]) it was 0.39 µg/mL (≈ 0.664 µM); against S. aureus 308 A-1, 0.2 µg/mL (≈ 0.34 µM). Besides, the MIC was 0.2 µg/mL (≈ 0.34 µM) in the assay on S. aureus FDA 209P (setting [2]), 1.56 µg/mL (≈ 2.65 µM) against S. aureus J-108, 1.56 µg/mL (≈ 2.65 µM) with S. aureus N-241 and 0.78 µg/mL (≈ 1.33 µM) with S. marcescens IFO12648.
